Measured values published in US20080044436A1, “Method for Screening and Compositions for Treating Cancers” (priority 2004, published 2008).
Values belong to the molecule of their own block, whether it stands above or below them.

Biological target: T1, PR (Homo sapiens, UniProt P06401)
T1 construct: made in house; host or cells: PR-B: rabbit reticulocyte lysate / T7 RNA polymerase in vitro translation (Promega)
T1 sequence (P06401 1-933): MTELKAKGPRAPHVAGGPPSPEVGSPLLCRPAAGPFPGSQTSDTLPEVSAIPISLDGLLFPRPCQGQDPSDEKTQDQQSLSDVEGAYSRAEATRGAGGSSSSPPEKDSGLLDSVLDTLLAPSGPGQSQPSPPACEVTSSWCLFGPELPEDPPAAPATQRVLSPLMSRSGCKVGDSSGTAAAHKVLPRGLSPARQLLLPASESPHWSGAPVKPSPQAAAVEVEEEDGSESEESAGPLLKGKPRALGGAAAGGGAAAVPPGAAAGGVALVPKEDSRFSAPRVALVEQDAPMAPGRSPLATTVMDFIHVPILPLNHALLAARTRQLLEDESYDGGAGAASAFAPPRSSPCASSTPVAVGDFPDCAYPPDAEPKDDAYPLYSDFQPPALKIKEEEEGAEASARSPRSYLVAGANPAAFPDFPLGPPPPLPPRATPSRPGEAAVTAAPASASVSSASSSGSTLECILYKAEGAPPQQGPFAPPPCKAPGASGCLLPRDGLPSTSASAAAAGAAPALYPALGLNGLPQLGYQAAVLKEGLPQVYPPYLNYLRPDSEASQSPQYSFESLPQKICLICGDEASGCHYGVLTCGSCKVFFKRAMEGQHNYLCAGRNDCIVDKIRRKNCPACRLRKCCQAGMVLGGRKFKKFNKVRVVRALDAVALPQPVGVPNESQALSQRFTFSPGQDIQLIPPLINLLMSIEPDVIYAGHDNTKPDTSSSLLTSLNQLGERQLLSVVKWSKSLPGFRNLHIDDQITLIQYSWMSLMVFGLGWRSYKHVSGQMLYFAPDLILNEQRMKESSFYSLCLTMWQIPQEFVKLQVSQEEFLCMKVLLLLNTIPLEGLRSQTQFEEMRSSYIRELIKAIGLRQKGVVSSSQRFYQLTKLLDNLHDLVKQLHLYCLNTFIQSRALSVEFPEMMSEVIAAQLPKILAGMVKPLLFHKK
T1 sequence (Q96PN7 1-1200 partner): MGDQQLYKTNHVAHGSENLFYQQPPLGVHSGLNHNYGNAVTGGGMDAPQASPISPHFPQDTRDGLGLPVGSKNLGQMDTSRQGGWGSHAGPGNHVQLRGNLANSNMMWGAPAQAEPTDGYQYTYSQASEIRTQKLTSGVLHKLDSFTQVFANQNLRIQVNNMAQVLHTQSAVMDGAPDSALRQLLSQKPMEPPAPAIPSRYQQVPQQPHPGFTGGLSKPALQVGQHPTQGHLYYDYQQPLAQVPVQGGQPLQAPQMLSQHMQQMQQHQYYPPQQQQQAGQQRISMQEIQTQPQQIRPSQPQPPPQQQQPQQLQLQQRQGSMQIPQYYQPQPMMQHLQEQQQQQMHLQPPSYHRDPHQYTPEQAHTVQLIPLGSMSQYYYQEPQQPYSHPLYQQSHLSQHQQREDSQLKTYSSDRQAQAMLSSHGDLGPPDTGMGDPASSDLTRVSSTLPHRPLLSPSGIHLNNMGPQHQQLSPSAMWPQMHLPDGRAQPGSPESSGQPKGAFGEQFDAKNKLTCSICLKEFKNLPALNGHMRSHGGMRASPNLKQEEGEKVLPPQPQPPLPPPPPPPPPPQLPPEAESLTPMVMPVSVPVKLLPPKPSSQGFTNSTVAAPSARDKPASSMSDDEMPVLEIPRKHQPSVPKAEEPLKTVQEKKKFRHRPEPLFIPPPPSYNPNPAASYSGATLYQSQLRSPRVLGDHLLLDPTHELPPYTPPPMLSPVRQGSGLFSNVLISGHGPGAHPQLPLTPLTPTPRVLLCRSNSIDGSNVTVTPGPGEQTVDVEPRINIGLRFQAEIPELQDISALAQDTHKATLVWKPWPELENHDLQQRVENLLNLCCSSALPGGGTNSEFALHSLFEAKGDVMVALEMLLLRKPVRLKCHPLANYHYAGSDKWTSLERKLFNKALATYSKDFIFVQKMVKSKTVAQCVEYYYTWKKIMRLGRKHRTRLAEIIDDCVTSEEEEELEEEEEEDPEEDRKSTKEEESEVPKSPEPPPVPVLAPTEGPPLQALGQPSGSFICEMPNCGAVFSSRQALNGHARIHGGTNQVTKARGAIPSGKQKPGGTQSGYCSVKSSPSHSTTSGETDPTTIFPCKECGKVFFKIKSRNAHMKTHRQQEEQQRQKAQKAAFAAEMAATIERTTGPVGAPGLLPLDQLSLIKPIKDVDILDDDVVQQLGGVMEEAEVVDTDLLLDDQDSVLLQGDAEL
Assay: GST pull-down, TReP-132 and PR
Format: binding
Method: FIG. 14D left: GST-TReP-132 immobilized on glutathione-Sepharose was incubated with ^35-[S]-methionine-labelled PR, in the absence or with increasing concentrations of progesterone (0-10 μM). Specific interactions were analyzed by comparison with the results obtained by incubating GST with ^35-[S]-PR, in the presence of 100 μM progesterone (GST).
FIG. 14D right: GST-TReP-132 wt, GST-TReP-132 ml (mutated at the LRQLL site) and GST-TReP-132 m2 (mutated at the LEMLL site) were analyzed for interaction with ^35-[S]-PR as described earlier, in the presence of 10 μM progesterone. Input PR: 1/10th of the radiolabelled PR level used in the experiments.
In order to evaluate the interaction of TReP-132, Sp1, ER and PR, the wt and mutant GST-TReP-132 fusion proteins were expressed, then immobilized on glutathione-Sepharose as described (Frangioni and Neel, 1993; Monte et al., 1998). The ^35S-[Sp1], ^35S-[ER] and ^35S-[PR-B] proteins were synthesized in vitro using a rabbit reticulocyte lysate and T7 RNA polymerase system as directed by the manufacturer (Promega Corporation, Madison, Wis.). Proteins which bound, then detached from the Sepharose after being heated to boiling in SDS buffer were then separated on a 10% SDS-PAGE gel. The gels were stained with Coomassie blue, dried and autoradiographed.

TReP-132/PR interaction in presence of progesterone (GST-TReP-132 and 35S-PR, progesterone 0-10 μM): increased in a dose-dependent manner
Molecule: CC(=O)[C@H]1CC[C@H]2[C@@H]3CCC4=CC(=O)CC[C@]4(C)[C@H]3CC[C@]12C [progesterone, reference compound]

interaction with PR (GST pull-down with 35S-PR): interact
B1: TReP-132: Transcriptional Regulating Protein of 132 kDa, polypeptide comprising SEQ ID NO: 2; here expressed in cells from vectors (protein)
chain: T1 sequence (Q96PN7 1-1200 partner)
